{"source": "patent US5512576A", "about": "“2-substituted 1,2,5,-thiadiazolidin-3-one 1,1-dioxides and compositions and method of use thereof” (Sterling Winthrop Inc., priority 1994, dated 1996)", "target": "T1, human leukocyte elastase (Homo sapiens, UniProt P08246)", "T1 sequence (P08246 30-267)": "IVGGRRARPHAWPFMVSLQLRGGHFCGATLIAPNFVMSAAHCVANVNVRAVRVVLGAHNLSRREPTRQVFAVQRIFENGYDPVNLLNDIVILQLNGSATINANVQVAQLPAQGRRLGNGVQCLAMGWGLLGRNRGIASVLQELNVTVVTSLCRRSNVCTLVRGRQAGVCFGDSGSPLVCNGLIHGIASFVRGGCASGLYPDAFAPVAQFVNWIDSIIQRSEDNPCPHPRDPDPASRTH", "assay": "human leukocyte elastase (HLE) inhibition, in vitro, substrate MeOSuc-Ala-Ala-Pro-Val-pNA", "type": "biochemical", "details": "pH 7.8 at 25° C., absorbance at 410 nm, read-out: Ki, human leukocyte elastase inhibitory activity", "procedure": "The test compound (inhibitor) is dissolved in DMSO in a vial to produce an inhibitor stock solution which has a concentration in the range of 200-1000 μM. The inhibitor stock solution is diluted (1:4, 1:16 and 1:64) into assay vials (vials 1, 2 and 3 respectively) containing 2.4 mL of buffer solution (50 mM N- 2-hydroxyethyl!piperazine-N'- 2-ethanesulfonic acid!/NaOH, 500 mM NaCl, pH 7.8 at 25° C.) and DMSO is added so that the total volume in each vial is 3.2 mL. 70 μL, 50 μL, 35 μL and 25 μL of inhibitor from assay vial 1 is placed into the first four wells of a 96-well microtiter plate and each well is made up to 90 μL total volume with the addition of a 25% DMSO/buffer solution. […]\nThe 96-well microtiter plate is placed into a Microplate Reader #89815A spectrophotometer and 110 BL of the enzyme solution (prepared as follows: a mixture of 20 mL of buffer solution and 20 mg of bovine serum albumen is gently vortexed in a scintillation vial and 5 BL HLE stock solution (1 mg/mL dissolved in deionized water) is added) is added simultaneously to each of the 16 wells. Each of the solutions in the wells is throughly mixed and then the time-dependent absorbance data is collected at an absorbance of 410 nm until the assay is complete. […]\nA plot of the absorbance versus time data thus obtained affords progress curves the final slope of which is equal to the final steady-state velocities (VF). […]"}
{"molecule": "CC(C)CCC1C(=O)N(COc2cc(=O)n3ccccc3n2)S(=O)(=O)N1C", "note": "(stereo not shown) [Example 1(j), 2-(4-oxo-4-H-pyrido 1,2-a!pyrimidin-2-yl-oxymethyl)-4-(3-methylbutyl)-5-methyl-1,2,5-thiadiazolidin-3-one 1,1-dioxide]", "values": [{"measurement": "Ki", "value": 0.79, "unit": "nM"}]}
